In ChEMBL document CHEMBL4118093, “Identification of a Hit Series of Antileishmanial Compounds through the Use of Mixture-Based Libraries” (ACS Med Chem Lett, 2017):

Tests used:
J774 = assay: Cytotoxicity against mouse J774 cells
Leishmania donovani [1] = assay: Antileishmanial activity against Leishmania donovani axenic amastigotes at 5 uM after 72 hrs by Celltiter reagent based assay relative to control; format: functional
Leishmania donovani [2] = assay: Antileishmanial activity against Leishmania donovani axenic amastigotes at 2.5 uM after 72 hrs by Celltiter reagent based assay relative to control; format: functional
Leishmania donovani [3] = assay: Antileishmanial activity against Leishmania donovani axenic amastigotes infected in mouse J774 cells measured after 72 hrs by Draq5 staining based high content screening assay; format: functional, organism-based; conditions: J774, 72 h
[4] = Selectivity index, ratio of IC50 for mouse J774 cells to IC50 for Leishmania donovani axenic amastigotes infected in mouse J774 cells; format: toxicity, cell-based; conditions: read-out: Ratio IC50

| SMILES | IC50 (Leishmania donovani [3]) [µM] | IC50 (J774) [µM] | inhibition at 5 µM (Leishmania donovani [1]) [%] | inhibition at 2.5 µM (Leishmania donovani [2]) [%] | selectivity ratio [4] |
| --- | --- | --- | --- | --- | --- |
| N=C1NC[C@H](CCCCN2C[C@@H](Cc3ccc4ccccc4c3)N(CCc3ccc(-c4ccccc4)cc3)C2=N)N1CCc1cccc(C(F)(F)F)c1 | 1.3 | 50 | 0 | 0 | 39 |
| N=C1NCCN1CCc1ccccc1 | 10 | 8 | – | – | 1 |
| CCCC[C@H]1CN(CCCC[C@@H]2CNC(=N)N2CCC23CC4CC(CC(C4)C2)C3)C(=N)N1CCc1ccc(-c2ccccc2)cc1 | 3.8 | 21 | – | – | 6 |
| CCCC[C@H]1CN(CCCC[C@H]2CNC(=N)N2CCC23CC4CC(CC(C4)C2)C3)C(=N)N1 | 4.2 | 13 | – | – | 3 |
| CCCC[C@H]1CN(CCCC[C@H]2CNC(=N)N2)C(=N)N1 | 5 to 10 | 50 | – | – | 5 to 10 |
| N=C1NC[C@H](CCCCN2CCNC2=N)N1 | 4.8 | 50 | – | – | 10 |
| N=C1NCCN1CCCC[C@H]1CNC(=N)N1CCc1ccccc1 | 1.2 | 16 | – | – | 13 |
| N=C1N[C@@H](CC2CCCCC2)CN1CCCC[C@H]1CNC(=N)N1CCCCC1CCCCC1 | 1.8 | 27 | – | – | 16 |
| CCCCCCCN1C(=N)N(CCCC[C@@H]2CNC(=N)N2CCCCC2CCCCC2)C[C@@H]1CC1CCCCC1 | 8.9 | 50 | – | – | 6 |
| CCCCCCCN1C(=N)N(CCCC[C@H]2CNC(=N)N2CCc2cccc(C(F)(F)F)c2)C[C@@H]1CC1CCCCC1 | > 5 | 50 | 6 | 0 | < 10 |
| N=C1NC[C@H](CCCCN2C[C@H](CC3CCCCC3)N(CCCCC3CCCCC3)C2=N)N1CCCCC1CCCCC1 | > 5 | 24 | 95 | 77 | < 5 |
| CCCC[C@H]1CN(CCCC[C@H]2CNC(=N)N2)C(=N)N1CCc1ccc(-c2ccccc2)cc1 | 1.2 | 50 | – | – | 43 |
| CC1CCCC(CCN2C(=N)NC[C@@H]2CCCCN2CCNC2=N)C1 (some centres not stated) | 1.8 | 19 | – | – | 10 |
| CCCCCCCN1CCN(CCCC[C@H]2CNC(=N)N2CCCCC2CCCCC2)C1=N | 3.5 | 6 | – | – | 2 |
| CCCC[C@H]1CNC(=N)N1CCC12CC3CC(CC(C3)C1)C2 | 4.7 | 12 | – | – | 3 |
| N=C1NC[C@H](CCCCN2C[C@@H](Cc3ccc4ccccc4c3)N(CCc3ccc(-c4ccccc4)cc3)C2=N)N1CCCCC1CCCCC1 | > 5 | 34 | 95 | 15 | < 7 |
| Cc1ccc(CCN2C(=N)NC[C@@H]2CCCCN2CCNC2=N)cc1 | 3.9 | 22 | – | – | 6 |
| CCCCCCCN1C(=N)N(CCCC[C@H]2CNC(=N)N2)C[C@@H]1CCCC | 1.3 | 22 | – | – | 17 |

| SMILES | IC50 (Leishmania donovani [3]) [µM] | IC50 (J774) [µM] | inhibition at 5 µM (Leishmania donovani [1]) [%] | inhibition at 2.5 µM (Leishmania donovani [2]) [%] | selectivity ratio [4] |
| --- | --- | --- | --- | --- | --- |
| CCCC[C@H]1CN(CCCC[C@H]2CNC(=N)N2CCc2cccc(C(F)(F)F)c2)C(=N)N1 | 3.5 | 11 | – | – | 3 |
| CCCCCCCN1C(=N)N(CCCC[C@H]2CNC(=N)N2CCCCC2CCCCC2)C[C@H]1Cc1ccc2ccccc2c1 | 1.3 | 50 | 97 | 6 | 38 |
| N=C1NC[C@H](CCCCN2C[C@H](CC3CCCCC3)N(CCCCC3CCCCC3)C2=N)N1CCC12CC3CC(CC(C3)C1)C2 | > 5 | 23 | 28 | 0 | < 5 |
| CC1CCC(CN2C(=N)NC[C@@H]2CCCCN2CCNC2=N)CC1 (some centres not stated) | 4.4 | 6 | – | – | 1 |
| N=C1NC[C@H](CCCCN2C[C@@H](Cc3ccc4ccccc4c3)N(CCCCC3CCCCC3)C2=N)N1CCC12CC3CC(CC(C3)C1)C2 | 2.6 | 32 | 99 | 99 | 13 |
| CCCCCCCN1C(=N)N(CCCC[C@H]2CNC(=N)N2CCC23CC4CC(CC(C4)C2)C3)C[C@@H]1CC1CCCCC1 | 2.5 | 26 | 85 | 14 | 11 |
| CCCCCCCN1C(=N)N(CCCC[C@H]2CNC(=N)N2)C[C@@H]1CC1CCCCC1 | 2.5 | 50 | – | – | 20 |
| CCCCCCCN1CCN(CCCC[C@H]2CNC(=N)N2)C1=N | 10 | 13 | – | – | 1 |
| CCCCCCCN1C(=N)N(CCCC[C@H]2CNC(=N)N2CCC23CC4CC(CC(C4)C2)C3)C[C@@H]1CCCC | > 5 | 32 | 94 | 96 | < 6 |
| CCCCCCCN1C(=N)N(CCCC[C@H]2CNC(=N)N2CCCCC2CCCCC2)C[C@@H]1CCCC | 1.3 | 16 | 98 | 68 | 12 |
| N=C1NCCN1CCCC[C@H]1CNC(=N)N1CCCCC1CCCCC1 | 5.2 | 24 | – | – | 5 |
| CCCCCCCN1CCN(CCCC[C@H]2CNC(=N)N2CCc2cccc(C(F)(F)F)c2)C1=N | 2.5 | 9 | – | – | 4 |
| Cc1ccccc1CCN1C(=N)NC[C@@H]1CCCCN1CCNC1=N | 3.5 | 50 | – | – | 14 |
| N=C1NCCN1CCCC[C@H]1CNC(=N)N1CCC12CC3CC(CC(C3)C1)C2 | 3.5 | 50 | – | – | 14 |
| N=C1NCCN1CCc1ccc(-c2ccccc2)cc1 | 4.8 | 15 | – | – | 3 |
| CCCC[C@H]1CNC(=N)N1CCc1ccc(-c2ccccc2)cc1 | 2.4 | 15 | – | – | 6 |
| N=C1NC[C@H](CCCCN2CCN(CCc3ccc(-c4ccccc4)cc3)C2=N)N1 | 4.9 | 50 | – | – | 10 |
| CC1CCCCC1CN1C(=N)NC[C@@H]1CCCCN1CCNC1=N (some centres not stated) | 5.4 | 14 | – | – | 3 |

Now those with a lower IC50 (Leishmania donovani [3]), led by results:

| IC50 (Leishmania donovani [3]) [µM] | SMILES | IC50 (J774) [µM] | inhibition at 5 µM (Leishmania donovani [1]) [%] | inhibition at 2.5 µM (Leishmania donovani [2]) [%] | selectivity ratio [4] |
| --- | --- | --- | --- | --- | --- |
| 1.1 | CCCC[C@H]1CNC(=N)N1CCc1ccccc1 | 25 | – | – | 23 |
| 0.9 | N=C1NC[C@H](CCCCN2C[C@@H](Cc3ccc4ccccc4c3)N(CCCCC3CCCCC3)C2=N)N1CCCCC1CCCCC1 | 50 | 0 | 0 | 56 |
| 0.9 | N=C1NC[C@H](CCCCN2C[C@H](CC3CCCCC3)N(CCc3ccc(-c4ccccc4)cc3)C2=N)N1CCC12CC3CC(CC(C3)C1)C2 | 17 | 57 | 14 | 20 |
| 0.9 | N=C1NCCN1CCCC[C@H]1CNC(=N)N1CCc1cccc(C(F)(F)F)c1 | 7 | – | – | 9 |
| 0.9 | Cc1cccc(CCN2C(=N)NC[C@@H]2CCCCN2CCNC2=N)c1 | 50 | – | – | 56 |
| 0.9 | CCCC[C@H]1CN(CCCC[C@H]2CNC(=N)N2CCC23CC4CC(CC(C4)C2)C3)C(=N)N1CCc1ccc(-c2ccccc2)cc1 | 22 | 0 | 0 | 25 |
| 0.7 | CCCCCCCN1C(=N)N(CCCC[C@H]2CNC(=N)N2CCCCC2CCCCC2)C[C@@H]1CC1CCCCC1 | 25 | 95 | 97 | 36 |
| 0.7 | N=C1N(CCCC[C@H]2CNC(=N)N2CCC23CC4CC(CC(C4)C2)C3)CCN1CCc1ccc(-c2ccccc2)cc1 | 23 | – | – | 33 |
| 0.6 | CCCC[C@H]1CN(CCCC[C@H]2CNC(=N)N2CCC23CC4CC(CC(C4)C2)C3)C(=N)N1CCCCC1CCCCC1 | 27 | 8 | 11 | 41 |
| 0.6 | CCCC[C@H]1CN(CCCC[C@@H]2CNC(=N)N2CCc2cccc(C(F)(F)F)c2)C(=N)N1CCCCC1CCCCC1 | 50 | – | – | 79 |
| 0.6 | CC1CCC(CCN2C(=N)NC[C@@H]2CCCCN2CCNC2=N)CC1 (some centres not stated) | 17 | – | – | 28 |
| 0.6 | CCCC[C@H]1CNC(=N)N1CC1CCC(C)CC1 (some centres not stated) | 6 | – | – | 10 |
| 0.6 | CCCCCCCN1C(=N)N(CCCC[C@H]2CNC(=N)N2CCC23CC4CC(CC(C4)C2)C3)C[C@H]1Cc1ccc2ccccc2c1 | 36 | 0 | 0 | 57 |
| 0.6 | N=C1NC[C@H](CCCCN2CCN(CCc3ccccc3)C2=N)N1 | 20 | – | – | 36 |
| 0.3 | N=C1NC[C@H](CCCCN2C[C@H](CC3CCCCC3)N(CCc3ccc(-c4ccccc4)cc3)C2=N)N1CCCCC1CCCCC1 | 20 | 95 | 70 | 69 |
| 0.3 | CCCC[C@H]1CN(CCCC[C@H]2CNC(=N)N2CCc2cccc(C(F)(F)F)c2)C(=N)N1CCc1ccc(-c2ccccc2)cc1 | 28 | 100 | 47 | 88 to 89 |
